Experimental data taken from patent publication US20220323406A1, “METHODS AND COMPOSITIONS FOR DIFFERENTIATING STEM CELLS” (Massachusetts Institute of Technology, priority 2019, published 2022).

Key:
ENR+CD organoids = experiment: Primary screen: ATP (CellTiter-Glo 3D, CTG) cell number/viability, 2.5-D 384-well ENR+CD organoids;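 note: compounds given at plating and again on day 3 over a 6-day differentiation from ENR+CV stem-cell-enriched precursors, ATP measured on day 6, plate median as control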
[1] = test system: ENR+CD organoids (ISC to Paneth cell differentiation); experiment: Primary screen: CCh-stimulated lysozyme secretion LYZ.S, 2.5-D 384-well ENR+CD organoid differentiation; assay type: cell-based, mouse; details: primary screen
Source text: (§1) High-throughput screening.

[2] = test system: ENR+CD organoids (ISC to Paneth cell differentiation); experiment: Primary screen: basal (non-stimulated) lysozyme secretion LYZ.NS, 2.5-D 384-well ENR+CD organoid differentiation; assay type: cell-based, mouse
Source text: as §1

[3] = primary screen, dose 0.08 uM, standard z score
[4] = primary screen, dose 0.40 uM, standard z score
[5] = primary screen, dose 2.00 uM, standard z score
[6] = primary screen, dose 10.00 uM, standard z score
[7] = primary screen; dose 0.08 uM; FC vs plate median
[8] = primary screen; dose 0.40 uM; FC vs plate median
[9] = primary screen; dose 2.00 uM; FC vs plate median
[10] = primary screen; dose 10.00 uM; FC vs plate median
[11] = dose 0.08 uM, FC vs plate median
[12] = dose 0.40 uM, FC vs plate median
[13] = dose 2.00 uM, FC vs plate median
[14] = dose 10.00 uM, FC vs plate median
[15] = primary screen, 1st dose row of the treatment (0.08 uM by row order; dose not reprinted)
[16] = primary screen, 2nd dose row of the treatment (0.40 uM by row order; dose not reprinted)
[17] = primary screen, 3rd dose row of the treatment (2.00 uM by row order; dose not reprinted)
[18] = primary screen, 4th dose row of the treatment (10.00 uM by row order; dose not reprinted)
[19] = 1st dose row of the treatment (0.08 uM by row order; dose not reprinted)
[20] = 2nd dose row of the treatment (0.40 uM by row order; dose not reprinted)
[21] = 3rd dose row of the treatment (2.00 uM by row order; dose not reprinted)
[22] = 4th dose row of the treatment (10.00 uM by row order; dose not reprinted)
[23] = primary screen, standard z score, dose 0.08 uM
[24] = primary screen, standard z score, dose 0.40 uM
[25] = primary screen, standard z score, dose 2.00 uM
[26] = primary screen, standard z score, dose 10.00 uM

CC[C@@H]1/C=C/C=C/C[C@H](C)[C@H](O)[C@](C)(O)C(=O)[C@H](C)[C@@H](O)[C@H](C)C(=O)[C@H](C)[C@@H](O)[C@H](C)/C=C/C(=O)O[C@H]2[C@@H](C)[C@@H](CC1)O[C@@]1(CC[C@@H](C)[C@@H](C[C@H](C)O)O1)[C@@H]2C [Oligomycin A] showed a Z.CTG (ENR+CD organoids; [3]) of −1.581, a Z.CTG (ENR+CD organoids; [4]) of −1.685 and a Z.CTG (ENR+CD organoids; [5]) of −2.261. It also gave a Z.CTG (ENR+CD organoids; [6]) of −2.972, a Dose.FC.CTG (ENR+CD organoids; [7]) of −0.662 log2 fold change and a Dose.FC.CTG (ENR+CD organoids; [8]) of −0.706 log2 fold change. It also gave a Dose.FC.CTG (ENR+CD organoids; [9]) of −0.946 log2 fold change, a Dose.FC.CTG (ENR+CD organoids; [10]) of −1.244 log2 fold change and a Dose.FC.LYZ.S [1, 11] of −0.243 log2 fold change. For the same compound, the Dose.FC.LYZ.S [1, 12] was −0.274 log2 fold change, the Dose.FC.LYZ.S [1, 13] was −0.269 log2 fold change and the Dose.FC.LYZ.S [1, 14] was −0.288 log2 fold change. It also gave a Z.LYZ.NS [2, 3] of −1.778, a Z.LYZ.NS [2, 4] of −2.013 and a Z.LYZ.NS [2, 5] of −1.857. For the same compound, the Z.LYZ.NS [2, 6] was −1.943, the Dose.FC.LYZ.NS [2, 7] was −0.204 log2 fold change and the Dose.FC.LYZ.NS [2, 8] was −0.231 log2 fold change. The Dose.FC.LYZ.NS [2, 9] was −0.213 log2 fold change and the Dose.FC.LYZ.NS [2, 10] was −0.223 log2 fold change.
In the case of C=C1C(=O)O[C@H]2[C@H]1CC/C(C)=C/CC[C@@]1(C)O[C@@H]21 [(−)-Parthenolide], the “SSMD.CTG.Rep (strictly standardized mean difference)” value (ENR+CD organoids; [15]) is reported as 0.498, the “SSMD.CTG.Rep (strictly standardized mean difference)” value (ENR+CD organoids; [16]) is reported as 0.736 and the “SSMD.CTG.Rep (strictly standardized mean difference)” value (ENR+CD organoids; [17]) is reported as 0.482. For the same compound, the “SSMD.CTG.Rep (strictly standardized mean difference)” value (ENR+CD organoids; [18]) was 0.257, the Dose.FC.CTG (ENR+CD organoids; primary screen, dose 0.08 uM) was 0.135 log2 fold change and the “Z.CTG (standard z score)” value (ENR+CD organoids; primary screen, dose 0.08 uM) was 0.322. For the same compound, the Dose.FC.CTG (ENR+CD organoids; primary screen, dose 0.40 uM) was 0.228 log2 fold change, the “Z.CTG (standard z score)” value (ENR+CD organoids; primary screen, dose 0.40 uM) was 0.544 and the Dose.FC.CTG (ENR+CD organoids; primary screen, dose 2.00 uM) was 0.157 log2 fold change. The “Z.CTG (standard z score)” value (ENR+CD organoids; primary screen, dose 2.00 uM) was 0.376, the Dose.FC.CTG (ENR+CD organoids; primary screen, dose 10.00 uM) was 0.157 log2 fold change and the “Z.CTG (standard z score)” value (ENR+CD organoids; primary screen, dose 10.00 uM) was 0.374. For the same compound, the “SSMD.LYZ.S_Rep (strictly standardized mean difference)” value [1, 19] was 0.679, the “Z.LYZ.S (standard z score)” value [1, 19] was 0.799 and the “SSMD.LYZ.S_Rep (strictly standardized mean difference)” value [1, 20] was 0.763. The “Z.LYZ.S (standard z score)” value [1, 20] was 1.067, the “SSMD.LYZ.S_Rep (strictly standardized mean difference)” value [1, 21] was 0.506 and the “Z.LYZ.S (standard z score)” value [1, 21] was 0.441. For the same compound, the “SSMD.LYZ.S_Rep (strictly standardized mean difference)” value [1, 22] was 0.345, the “Z.LYZ.S (standard z score)” value [1, 22] was 0.530 and the Dose.FC.LYZ.S ([1]; dose 0.08 uM) was 0.124 log2 fold change. For the same compound, the Dose.FC.LYZ.S ([1]; dose 0.40 uM) was 0.165 log2 fold change, the Dose.FC.LYZ.S ([1]; dose 2.00 uM) was 0.068 log2 fold change and the Dose.FC.LYZ.S ([1]; dose 10.00 uM) was 0.082 log2 fold change. For the same compound, the “SSMD.LYZ.NS_Rep (strictly standardized mean difference)” value [2, 15] was 0.601, the “SSMD.LYZ.NS_Rep (strictly standardized mean difference)” value [2, 16] was 0.480 and the “SSMD.LYZ.NS_Rep (strictly standardized mean difference)” value [2, 17] was 0.920. For the same compound, the “SSMD.LYZ.NS_Rep (strictly standardized mean difference)” value [2, 18] was 0.998, the Dose.FC.LYZ.NS ([2]; primary screen, dose 0.08 uM) was 0.058 log2 fold change and the “Z.LYZ.NS (standard z score)” value ([2]; primary screen, dose 0.08 uM) was 0.506. The Dose.FC.LYZ.NS ([2]; primary screen, dose 0.40 uM) was 0.067 log2 fold change, the “Z.LYZ.NS (standard z score)” value ([2]; primary screen, dose 0.40 uM) was 0.583 and the Dose.FC.LYZ.NS ([2]; primary screen, dose 2.00 uM) was 0.089 log2 fold change. The “Z.LYZ.NS (standard z score)” value ([2]; primary screen, dose 2.00 uM) was 0.776, the Dose.FC.LYZ.NS ([2]; primary screen, dose 10.00 uM) was 0.133 log2 fold change and the “Z.LYZ.NS (standard z score)” value ([2]; primary screen, dose 10.00 uM) was 1.159.
Compound OC(CNCC(O)C1CCc2cc(F)ccc2O1)C1CCc2cc(F)ccc2O1 (centres unmarked) [Nebivolol] has a Dose.FC.CTG (ENR+CD organoids; [7]) of 0.388 log2 fold change, a Dose.FC.CTG (ENR+CD organoids; [8]) of 0.220 log2 fold change and a Dose.FC.CTG (ENR+CD organoids; [9]) of 0.312 log2 fold change. The Dose.FC.CTG (ENR+CD organoids; [10]) was 0.209 log2 fold change, the Dose.FC.LYZ.S [1, 11] was 0.194 log2 fold change and the Dose.FC.LYZ.S [1, 12] was 0.282 log2 fold change. It also gave a Dose.FC.LYZ.S [1, 13] of 0.069 log2 fold change, a Dose.FC.LYZ.S [1, 14] of 0.105 log2 fold change and a Z.LYZ.NS [2, 3] of 1.525. It also gave a Z.LYZ.NS [2, 4] of 2.776, a Z.LYZ.NS [2, 5] of 0.960 and a Z.LYZ.NS [2, 6] of 0.836. The Dose.FC.LYZ.NS [2, 7] was 0.175 log2 fold change, the Dose.FC.LYZ.NS [2, 8] was 0.319 log2 fold change and the Dose.FC.LYZ.NS [2, 9] was 0.110 log2 fold change. The Dose.FC.LYZ.NS [2, 10] was 0.096 log2 fold change.
For CNC(=O)c1ccc(N2C(=S)N(c3ccc(C#N)c(C(F)(F)F)c3)C(=O)C2(C)C)cc1F [Enzalutamide (MDV3100)], the Dose.FC.CTG (ENR+CD organoids; primary screen, dose 0.08 uM) was 0.195 log2 fold change, the Dose.FC.CTG (ENR+CD organoids; primary screen, dose 0.40 uM) was 0.256 log2 fold change and the Dose.FC.CTG (ENR+CD organoids; primary screen, dose 2.00 uM) was 0.076 log2 fold change. The Dose.FC.CTG (ENR+CD organoids; primary screen, dose 10.00 uM) was 0.146 log2 fold change, the Z.CTG (ENR+CD organoids; [23]) was 0.465 and the Z.CTG (ENR+CD organoids; [24]) was 0.611. The Z.CTG (ENR+CD organoids; [25]) was 0.181, the Z.CTG (ENR+CD organoids; [26]) was 0.348 and the Dose.FC.LYZ.S ([1]; dose 0.08 uM) was 0.176 log2 fold change. It also gave a Dose.FC.LYZ.S ([1]; dose 0.40 uM) of 0.276 log2 fold change, a Dose.FC.LYZ.S ([1]; dose 2.00 uM) of 0.077 log2 fold change and a Dose.FC.LYZ.S ([1]; dose 10.00 uM) of 0.076 log2 fold change. For the same compound, the Dose.FC.LYZ.NS ([2]; primary screen, dose 0.08 uM) was 0.162 log2 fold change, the Dose.FC.LYZ.NS ([2]; primary screen, dose 0.40 uM) was 0.166 log2 fold change and the Dose.FC.LYZ.NS ([2]; primary screen, dose 2.00 uM) was 0.024 log2 fold change. The Dose.FC.LYZ.NS ([2]; primary screen, dose 10.00 uM) was 0.094 log2 fold change, the Z.LYZ.NS [2, 23] was 1.411 and the Z.LYZ.NS [2, 24] was 1.446. For the same compound, the Z.LYZ.NS [2, 25] was 0.210 and the Z.LYZ.NS [2, 26] was 0.820.
